Assay [1] has as its target EntA (Escherichia coli, UniProt P15047). The assay can be described thus: NADH formation at […] nm. In kind it is biochemical. The note with it: co-substrate 2,3-diDHBA.
Assay [2] concerns the target BDH2 (DHRS6) (Mus musculus, UniProt Q8JZV9). The assay can be described thus: NADH formation at […] nm. The note with it: co-substrate 2,3-diDHBA. It is filed as biochemical.

Molecules are shown by their SMILES.

EntA, sequence (P15047 whole entry): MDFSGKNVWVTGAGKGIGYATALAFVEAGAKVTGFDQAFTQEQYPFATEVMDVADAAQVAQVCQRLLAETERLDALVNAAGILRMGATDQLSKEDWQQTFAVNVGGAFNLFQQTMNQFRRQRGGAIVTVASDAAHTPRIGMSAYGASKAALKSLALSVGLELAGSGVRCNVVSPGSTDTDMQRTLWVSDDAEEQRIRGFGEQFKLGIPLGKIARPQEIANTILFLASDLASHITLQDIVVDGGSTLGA
BDH2 (DHRS6), sequence (Q8JZV9 whole entry): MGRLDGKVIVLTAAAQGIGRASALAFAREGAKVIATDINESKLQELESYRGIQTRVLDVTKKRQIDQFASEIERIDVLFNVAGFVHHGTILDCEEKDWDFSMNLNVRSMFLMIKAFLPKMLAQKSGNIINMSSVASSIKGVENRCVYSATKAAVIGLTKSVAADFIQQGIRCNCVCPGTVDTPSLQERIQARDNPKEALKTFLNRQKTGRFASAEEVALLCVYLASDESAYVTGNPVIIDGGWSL

On to `NC(=O)c1ccc[n+]([C@@H]2O[C@H](COP(=O)(O)OP(=O)(O)OC[C@H]3O[C@@H](n4cnc5c(N)ncnc54)[C@H](O)[C@@H]3O)[C@@H](O)[C@H]2O)c1` [NAD^+], for which the “NADH formation at 340 nm” value in assay [1] is “wild-type EntA and BDH2 proteins, but not their mutant derivatives, catalyzed the conversion of NAD”; in assay [2], “wild-type EntA and BDH2 proteins, but not their mutant derivatives, catalyzed the conversion of NAD”.

The values are drawn from article PMC2910436 (Cell, 2010).
